Here are results for five compounds from US11993598B2, “Compounds for inhibiting EGFR kinase, preparation methods and uses thereof” (WIGEN BIOMEDICINE TECHNOLOGY (SHANGHAI) CO., LTD., priority 2019, dated 2024).

The target in data set [1] is EGFR-WT (Homo sapiens, UniProt P00533). In words: Wild-type EGFR biochemical activity assay (HTRF). The method, then: (§1) Assay 1: Wild-type EGFR, HER2 and HER4, and mutant EGFR biochemical activity assay
(§2) 10 nL of Serially diluted compounds were transferred to assay plates using the labcyte Echo 550, and 5 uL of 2× enzymes in assay buffer were subsequently dispensed. The assay plate was covered with an adhesive plate seal, and briefly spinned for 30 s at 1000 g. 5 uL of 2× TK-substrate-biotin and ATP mixed in assay buffer were added.
(§3) IC50 was calculated and analyzed using a 4 parametric logistic model.
(In general: TR-FRET usually uses a lanthanide donor and a delayed reading to cut background.)

Data set [2] addresses EGFR A763_Y764insFHEA (Homo sapiens, UniProt P00533, INS763FHEA). In words: Mutant EGFR biochemical activity assay (HTRF). The following applies: read-out: IC50 (nM) EGFR A763_Y764 insFHEA. The method, then: as §1, §2, §3
Data set [3] deals with EGFR D770-N771insNPG (Homo sapiens, UniProt P00533, INS770NPG). Nature of the data set: Mutant EGFR biochemical activity assay (HTRF). The procedure:
as §1, §2, §3

The target in data set [4] is EGFR D770GY (Homo sapiens, UniProt P00533, D770Y/INS769G). Nature of the data set: Mutant EGFR biochemical activity assay (HTRF). The method, then:
as §1, §2, §3

Data set [5] concerns the target EGFR D770_N771insNPG T790M (Homo sapiens, UniProt P00533, INS770NPG/T790M). In words: Mutant EGFR biochemical activity assay (HTRF). The following applies: read-out: IC50 (nM) EGFR D770_N771 insNPG T790M. The procedure:
as §1, §2, §3

In data set [6] the target is EGFR Del19 (Homo sapiens, UniProt P00533). In words: Mutant EGFR biochemical activity assay (HTRF). The method, then: as §1, §2, §3
The target in data set [7] is EGFR L792F (Homo sapiens, UniProt P00533, L792F). Nature of the data set: Mutant EGFR biochemical activity assay (HTRF). The procedure: as §1, §2, §3
In data set [8] the target is EGFR L792H (Homo sapiens, UniProt P00533, L792H). In words: Mutant EGFR biochemical activity assay (HTRF). The method, then:
as §1, §2, §3

Data set [9] deals with EGFR T790M (Homo sapiens, UniProt P00533, T790M). Nature of the data set: Mutant EGFR biochemical activity assay (HTRF). The procedure: as §1, §2, §3
Data set [10] has as its target EGFR T790M/L858R (Homo sapiens, UniProt P00533, L858R/T790M). Nature of the data set: Mutant EGFR biochemical activity assay (HTRF). The method, then:
as §1, §2, §3

Data set [11] deals with HER2 (Homo sapiens, UniProt P04626). In words: HER2 biochemical activity assay (HTRF). The procedure: as §1, §2, §3
Sequence of HER2 (P04626 23-1255): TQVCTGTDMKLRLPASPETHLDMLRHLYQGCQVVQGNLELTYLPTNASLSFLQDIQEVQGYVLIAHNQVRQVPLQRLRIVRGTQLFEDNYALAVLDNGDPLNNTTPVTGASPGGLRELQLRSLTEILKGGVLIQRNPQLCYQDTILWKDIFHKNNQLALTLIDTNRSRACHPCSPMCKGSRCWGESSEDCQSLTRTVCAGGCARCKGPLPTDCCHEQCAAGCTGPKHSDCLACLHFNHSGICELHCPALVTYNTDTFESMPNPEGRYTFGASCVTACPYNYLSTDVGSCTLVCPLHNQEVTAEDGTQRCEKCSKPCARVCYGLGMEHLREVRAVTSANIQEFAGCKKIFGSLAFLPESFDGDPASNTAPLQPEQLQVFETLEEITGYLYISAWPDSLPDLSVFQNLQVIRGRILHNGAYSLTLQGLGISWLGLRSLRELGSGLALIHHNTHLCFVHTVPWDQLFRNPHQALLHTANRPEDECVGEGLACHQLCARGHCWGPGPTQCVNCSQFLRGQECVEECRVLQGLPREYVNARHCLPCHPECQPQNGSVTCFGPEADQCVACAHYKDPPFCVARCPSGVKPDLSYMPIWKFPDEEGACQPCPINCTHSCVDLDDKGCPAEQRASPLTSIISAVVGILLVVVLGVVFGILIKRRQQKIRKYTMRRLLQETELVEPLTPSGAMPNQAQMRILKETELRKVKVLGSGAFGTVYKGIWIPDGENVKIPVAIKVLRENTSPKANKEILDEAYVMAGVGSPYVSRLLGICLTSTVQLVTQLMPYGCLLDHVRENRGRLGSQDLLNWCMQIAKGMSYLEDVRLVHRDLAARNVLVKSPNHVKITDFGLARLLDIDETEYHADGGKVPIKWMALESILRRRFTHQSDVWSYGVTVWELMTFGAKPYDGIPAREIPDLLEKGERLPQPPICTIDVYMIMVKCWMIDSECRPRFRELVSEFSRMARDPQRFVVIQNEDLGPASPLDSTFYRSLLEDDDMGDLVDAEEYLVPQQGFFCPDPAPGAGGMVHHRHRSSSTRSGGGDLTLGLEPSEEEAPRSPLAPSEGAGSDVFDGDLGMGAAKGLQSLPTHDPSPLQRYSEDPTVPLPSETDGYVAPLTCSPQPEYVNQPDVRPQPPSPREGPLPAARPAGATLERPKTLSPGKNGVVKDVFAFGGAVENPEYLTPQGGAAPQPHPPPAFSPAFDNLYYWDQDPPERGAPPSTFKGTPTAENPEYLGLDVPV
Data set [12] deals with HER4 (Homo sapiens, UniProt Q15303). Nature of the data set: HER4 biochemical activity assay (HTRF). The procedure: as §1, §2, §3
For data set [13], the system named is A431 (wild type EGFR, skin cancer). Nature of the data set: Cell proliferation assay (MTT). In kind it is cell-based. The settings on record: Homo sapiens, A-431, 72 h, three days. The procedure: (§4) A431 cells, H1975 and Ba/F3 cells expressing various mutant EGFR were harvested from exponential phase cultures and seeded in 96-well plates at a cell density of 3000 per well for A431 and H1975, and 10000 per well for Ba/F3 cells. After overnight attachment, compounds were 3-fold serially diluted and applied to cells at 30 μM, 10 μM, 3 μM, 1 μM, 0.3 μM, […], 0.03 μM and 0.01 μM with triplicates, and incubated for three days. 20 μL of 5 mg/mL MTT was added afterwards followed by the further addition of 50 μL 10% SDS together with 5% isobutyl alcohol in 0.01 mol/L HCl. The plates were incubated overnight. Absorbance (A) at a wavelength of 570 nm was quantified. Percentage of inhibition was used for the calculation of IC50 based on the bliss method.

In data set [14] the target is Ba/F3_EGFR D770_N771insSVD (Homo sapiens, UniProt P00533, DUP768-770, cells depend on it). Nature of the data set: Cell proliferation assay (MTT). The format is cell-based. The settings on record: three days, read-out: Ba/F3_EGFR D770_N771insSVD IC50. The method, then: as §4
Data set [15] deals with Ba/F3_EGFR V769_D770insASV (Homo sapiens, UniProt P00533, DUP767-769, cells depend on it). Nature of the data set: Cell proliferation assay (MTT). The format is cell-based. The following applies: three days, read-out: Ba/F3_EGFR V769_D770insASV IC50. The procedure:
as §4

Data set [16] deals with H1975 (EGFR L858R/T790M, NSCLC). In words: Cell proliferation assay (MTT). The format is cell-based. The following applies: Homo sapiens, NCI-H1975, 72 h, three days. The method, then: as §4
Data set [17] has as its system LU-01-0426. Nature of the data set: Patient derived xenograft (PDX) mouse model. The format is in vivo, nude mice. The settings on record: LU-01-0426, 0.5 mg/kg poziotinib. The method, then:
(§5) Assay 3. In vivo studies in cell line-derived (CDX) and patient derived xenografts (PDX) mouse models
(§6) Cells (H1975) or tissue pieces (LU0493 and LU0426) were implanted subcutaneously into the left armpit of nude mice. When the average tumor volume reached 100-150 mm^3, mice were randomized by tumor volume and treated with vehicle, compound 1 or poziotinib respectively. Tumor volume and body weight were measured twice per week. Mice were sacrificed on day 21 or day 28, and tumor volume and terminal body weight were recorded. The relative tumor volume, percent of treatment/control values and tumor growth inhibition were calculated and statistics was performed.
(§7) Terminal body weight changes were calculated as percentage of body changes from day 1 to day 21.

Data set [18] has as its system LU-01-0493. Nature of the data set: Patient derived xenograft (PDX) mouse model. The format is in vivo, nude mice. The settings on record: LU-01-0493, 0.5 mg/kg poziotinib. The procedure: as §5, §6, §7
For orientation: A xenograft is tissue or cells of one species grown in another, often human tumour cells in immunodeficient mice.

For data set [19], the system named is LU-0387. In words: Xenograft mouse model LU-0387. The following applies: LU-0387, 0.5 mg/kg poziotinib. The format is in vivo, nude mice.

Where only a bound is given, the exact number is not on record here.

Sequence of EGFR T790M/L858R (P00533 25-1210 T790M/L858R): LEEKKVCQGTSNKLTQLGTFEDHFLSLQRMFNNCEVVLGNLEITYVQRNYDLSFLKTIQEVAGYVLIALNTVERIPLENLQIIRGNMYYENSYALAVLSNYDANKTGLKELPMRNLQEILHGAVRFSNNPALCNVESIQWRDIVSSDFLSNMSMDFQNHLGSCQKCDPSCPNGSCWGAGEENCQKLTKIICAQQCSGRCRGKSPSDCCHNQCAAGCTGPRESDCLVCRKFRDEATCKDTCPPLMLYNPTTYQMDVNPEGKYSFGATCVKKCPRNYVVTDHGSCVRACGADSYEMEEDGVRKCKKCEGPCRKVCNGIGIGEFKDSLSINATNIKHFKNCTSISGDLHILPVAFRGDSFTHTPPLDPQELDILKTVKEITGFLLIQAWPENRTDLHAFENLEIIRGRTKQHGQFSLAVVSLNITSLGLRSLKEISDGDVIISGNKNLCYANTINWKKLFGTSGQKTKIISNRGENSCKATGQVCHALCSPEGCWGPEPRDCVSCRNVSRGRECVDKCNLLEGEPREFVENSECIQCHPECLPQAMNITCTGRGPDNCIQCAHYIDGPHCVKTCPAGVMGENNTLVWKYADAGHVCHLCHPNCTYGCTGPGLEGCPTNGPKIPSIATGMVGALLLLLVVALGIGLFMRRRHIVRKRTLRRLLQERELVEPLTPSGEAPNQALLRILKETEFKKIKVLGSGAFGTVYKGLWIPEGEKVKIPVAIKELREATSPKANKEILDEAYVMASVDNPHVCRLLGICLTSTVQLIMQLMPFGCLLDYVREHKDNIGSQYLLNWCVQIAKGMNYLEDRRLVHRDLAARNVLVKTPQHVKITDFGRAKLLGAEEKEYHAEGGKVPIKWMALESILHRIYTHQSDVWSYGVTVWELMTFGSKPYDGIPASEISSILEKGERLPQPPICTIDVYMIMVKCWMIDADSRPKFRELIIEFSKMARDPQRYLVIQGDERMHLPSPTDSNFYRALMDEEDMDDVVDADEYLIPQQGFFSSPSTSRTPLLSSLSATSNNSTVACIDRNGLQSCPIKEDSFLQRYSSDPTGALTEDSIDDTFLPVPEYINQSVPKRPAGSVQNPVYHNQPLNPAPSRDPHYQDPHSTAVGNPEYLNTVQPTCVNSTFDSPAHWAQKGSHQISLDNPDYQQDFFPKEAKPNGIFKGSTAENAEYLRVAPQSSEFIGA
Sequence of EGFR D770-N771insNPG (P00533 with tags, fused parts or gaps INS770NPG limits assumed): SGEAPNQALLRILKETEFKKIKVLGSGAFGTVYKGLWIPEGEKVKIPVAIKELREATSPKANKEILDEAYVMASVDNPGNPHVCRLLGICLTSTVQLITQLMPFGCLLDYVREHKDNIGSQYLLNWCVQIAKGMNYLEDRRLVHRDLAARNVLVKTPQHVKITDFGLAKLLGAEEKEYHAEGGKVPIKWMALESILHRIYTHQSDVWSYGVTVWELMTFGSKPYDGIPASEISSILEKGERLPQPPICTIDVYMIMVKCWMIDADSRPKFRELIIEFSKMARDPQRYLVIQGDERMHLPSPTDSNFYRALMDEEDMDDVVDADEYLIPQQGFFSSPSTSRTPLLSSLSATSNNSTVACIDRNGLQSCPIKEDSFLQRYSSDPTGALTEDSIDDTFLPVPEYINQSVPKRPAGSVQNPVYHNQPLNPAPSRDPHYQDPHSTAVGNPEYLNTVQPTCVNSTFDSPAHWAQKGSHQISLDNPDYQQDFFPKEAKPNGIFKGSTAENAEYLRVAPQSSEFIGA
Sequence of EGFR D770_N771insNPG T790M (P00533 with tags, fused parts or gaps INS770NPG/T790M limits assumed): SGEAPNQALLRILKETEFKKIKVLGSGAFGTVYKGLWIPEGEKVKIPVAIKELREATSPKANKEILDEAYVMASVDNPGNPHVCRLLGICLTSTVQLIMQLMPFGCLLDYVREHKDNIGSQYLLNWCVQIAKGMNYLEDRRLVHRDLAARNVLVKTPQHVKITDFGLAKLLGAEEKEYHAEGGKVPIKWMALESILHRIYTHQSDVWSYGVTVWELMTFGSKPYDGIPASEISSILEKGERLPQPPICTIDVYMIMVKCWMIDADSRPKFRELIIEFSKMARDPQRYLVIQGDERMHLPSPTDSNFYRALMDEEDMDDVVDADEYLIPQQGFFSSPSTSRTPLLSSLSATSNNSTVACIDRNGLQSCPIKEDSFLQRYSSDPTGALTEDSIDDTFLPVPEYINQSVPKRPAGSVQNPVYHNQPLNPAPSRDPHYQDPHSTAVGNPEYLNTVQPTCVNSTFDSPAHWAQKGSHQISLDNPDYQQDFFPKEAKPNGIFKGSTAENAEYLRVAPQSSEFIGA
Sequence of EGFR L792H (P00533 25-1210 L792H): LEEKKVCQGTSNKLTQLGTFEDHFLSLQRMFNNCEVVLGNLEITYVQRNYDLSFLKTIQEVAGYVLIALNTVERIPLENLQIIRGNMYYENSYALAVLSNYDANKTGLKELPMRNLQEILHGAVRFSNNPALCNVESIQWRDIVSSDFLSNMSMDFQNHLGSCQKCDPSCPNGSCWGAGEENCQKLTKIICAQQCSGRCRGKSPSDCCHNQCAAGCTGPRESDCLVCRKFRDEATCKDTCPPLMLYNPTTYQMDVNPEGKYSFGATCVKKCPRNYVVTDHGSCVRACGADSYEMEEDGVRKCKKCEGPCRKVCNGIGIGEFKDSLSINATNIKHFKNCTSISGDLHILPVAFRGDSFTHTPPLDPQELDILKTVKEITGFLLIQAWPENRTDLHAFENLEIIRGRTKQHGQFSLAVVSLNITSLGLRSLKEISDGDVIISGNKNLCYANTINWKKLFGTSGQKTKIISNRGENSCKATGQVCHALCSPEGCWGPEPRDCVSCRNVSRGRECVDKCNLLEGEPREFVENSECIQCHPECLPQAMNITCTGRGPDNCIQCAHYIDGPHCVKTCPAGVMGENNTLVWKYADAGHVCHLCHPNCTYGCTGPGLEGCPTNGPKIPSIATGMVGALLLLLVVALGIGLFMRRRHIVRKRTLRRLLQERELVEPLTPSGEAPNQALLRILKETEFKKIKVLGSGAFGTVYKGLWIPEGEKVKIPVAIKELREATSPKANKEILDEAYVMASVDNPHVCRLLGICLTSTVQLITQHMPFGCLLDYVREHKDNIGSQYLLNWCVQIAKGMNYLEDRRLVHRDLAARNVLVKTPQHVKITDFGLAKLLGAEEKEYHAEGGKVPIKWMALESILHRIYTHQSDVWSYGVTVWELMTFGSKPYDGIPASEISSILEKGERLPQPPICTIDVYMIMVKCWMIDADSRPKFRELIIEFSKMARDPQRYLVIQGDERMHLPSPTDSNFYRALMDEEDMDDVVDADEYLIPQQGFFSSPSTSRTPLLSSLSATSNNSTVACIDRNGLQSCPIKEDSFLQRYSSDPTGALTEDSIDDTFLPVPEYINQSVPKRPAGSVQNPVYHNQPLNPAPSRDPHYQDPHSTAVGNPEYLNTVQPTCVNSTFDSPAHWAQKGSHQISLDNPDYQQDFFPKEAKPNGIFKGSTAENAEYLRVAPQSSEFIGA

In general, IC50 refers to the concentration at which inhibition is half-maximal. Consider `C=CC(=O)Nc1cc(Nc2nccc(-n3c(=O)n4c5c(cccc53)CCC4)n2)c(OC)cc1N(C)CCN(C)C` [Compound 2, N-(2-((2-(dimethylamino)ethyl)(methyl)amino)-4-methoxy-5-((4-(2-oxo-5,6-dihydro-4H-imidazo[4,5,1-ij]quinolin-1(2H)-yl)pyrimidin-2-yl)amino)phenyl)acrylamide], for which the IC50 in data set [1] was 1.23 nM; in [2], 0.299 nM; in [3] it was 0.0815 nM; in data set [4] it was 0.276 nM; in data set [5], 0.0567 nM; in data set [6] it was 0.107 nM. Besides, the IC50 in [7] is 1.65 nM; in data set [8] it was 46.9 nM; in data set [9], 0.0509 nM; in data set [10], 0.0724 nM; in data set [11] it was 47 nM; in data set [12], 1.35 nM. Further, the concentration for half-maximal inhibition (IC50) stood at 71.1 nM in data set [13] and 23 nM in data set [16]. In addition, the GI50 in data set [14] turned out to be 9.15 nM; in data set [15], 23.8 nM.

In the case of `C=CC(=O)Nc1cc(Nc2nccc(-n3c(=O)n4c5c(cccc53)CCC4)n2)c(OC)nc1N(C)CCN(C)C` [Compound 4, N-(2-((2-(dimethylamino)ethyl)(methyl)amino)-6-methoxy-5-((4-(2-oxo-5,6-dihydro-4H-imidazo[4,5,1-ij]quinolin-1(2H)-yl)pyrimidin-2-yl)amino)pyridin-3-yl)acrylamide], the concentration for half-maximal inhibition (IC50) in [1] was determined as 0.552 nM; in data set [2], 0.143 nM; in [3], 0.0554 nM; in data set [4], 0.13 nM; in data set [5] it was 0.0514 nM; in data set [6], 0.233 nM. Further, the IC50 was determined as 0.415 nM in [7]; 15.6 nM in data set [8]; 0.0573 nM in [9]; 0.0841 nM in data set [10]; 34.6 nM in [11]; 0.694 nM in data set [12]. The results for the IC50 in [13] and in [16] were 154 nM and 12.4 nM, respectively. The GI50 was 5.08 nM in data set [14] and 15.7 nM in [15].

Regarding `C=CC(=O)Nc1cc(Nc2nccc(-n3c(=O)n4c5c(cccc53)CCC4)n2)c(OCC(F)(F)F)nc1N(C)CCN(C)C` [Compound 6, N-(2-((2-(dimethylamino)ethyl)(methyl)amino)-5-((4-(2-oxo-5,6-dihydro-4H-imidazo[4,5,1-ij]quinolin-1(2H)-yl)pyrimidin-2-yl)amino)-6-(2,2,2-trifluoroethoxy)pyridin-3-yl)acrylamide], the half-maximal inhibitory concentration (IC50) in [1] amounted to 0.451 nM; in data set [2] it was 0.149 nM; in data set [3], 0.0688 nM; in [4] it was 0.0489 nM; in data set [5] it was 0.0834 nM; in data set [6] it was 0.14 nM. Besides, the 50% inhibitory concentration (IC50) in data set [7] is 4.09 nM; in data set [8], > 100 nM; in [9] it was 0.0656 nM; in data set [10], 0.0865 nM; in data set [11], 25.1 nM; in [12] it was 0.725 nM. Besides, the 50% inhibitory concentration (IC50) in [13] was determined as 140 nM; in [16], 14.8 nM. Besides, the GI50 came to 3.47 nM in data set [14] and 13.3 nM in data set [15].

As to `[2H]C([2H])([2H])Oc1cc(N(C)CCN(C)C([2H])([2H])[2H])c(NC(=O)C=C)cc1Nc1nccc(-n2c(=O)n3c4c(cc(F)cc42)CCC3)n1` [Compound 43, N-(5-((4-(8-fluoro-2-oxo-5,6-dihydro-4H-imidazo[4,5,1-ij]quinolin-1(2H)-yl)pyrimidin-2-yl)amino)-4-(methoxy-d3)-2-(methyl(2-(methyl(methyl-d3)amino)ethyl)amino)phenyl) acrylamide], the IC50 was 254 nM in data set [13] and 19.8 nM in data set [16]. The GI50 in data set [14] turned out to be 6.65 nM; in data set [15], 16.6 nM.

For `C=CC(=O)N1CCC(Oc2cc3c(Nc4ccc(Cl)c(Cl)c4F)ncnc3cc2OC)CC1` [poziotinib, reference compound], the “TGI (%)” value in data set [17] amounted to 91.3%; in data set [18], 56.8%; in data set [19] it was 74.49%. For the same compound, the “Terminal body weight changes (%)” value in data set [17] (day 1 to day 21) is −7.4%; in data set [18] (day 1 to day 21) it was −12.4%; in data set [19] (day 1 to day 21), 0%.
